Source: paper PMC3574584 (Journal of medicinal chemistry, 2013)
“Also recorded” adds a separate entry of the source.

Tested on: Raw264.7 cells expressing mPTPB
Test: Akt phosphorylation by Western blotting
Format: cell-based, mouse
Conditions: mPTPB expressing Raw264.7 macrophages, IFN-γ 200 U/ml; 6c at 240 nM

Row | Compound | Akt activity (phospho-Akt)
1 | O=C(O)c1cc2c(C#Cc3cccc(C(F)(F)F)c3)c(-c3ccccc3)oc2cc1O [Compound 4g, 6-hydroxy-2-phenyl-3-((3-(trifluoromethyl)phenyl)ethynyl)benzofuran-5-carboxylic acid] | normalized; also recorded: blocks
2 | O=C(O)c1cc2c(CCc3ccc(OC(F)(F)F)cc3)c(-c3ccccc3)oc2cc1O [Compound 6c, 6-hydroxy-2-phenyl-3-(4-(trifluoromethoxy)phenethyl)benzofuran-5-carboxylic acid] | unable to reverse
